Reference: paper PMC9303580, “The T1‐tetramerisation domain of Kv1.2 rescues expression and preserves function of a truncated NaChBac sodium channel” (Febs Letters, 2022)
pIC50: −log10 of the molar value.

Assays:
[1] = test system: T1, T1-chimera; assay: […]+ flux assay in proteoliposomes; type: biochemical, Halalkalibacterium halodurans; conditions: estimated; block at 45 min, POPE:POPG 3:1 liposomes, 450 mM NaCl inside, pH 7.5; pore blocker
T1 construct: gene NaChBac; single-chain fusion: N-terminal His6 tag, human Kv1.2 T1 domain (1-145, MTV...NEF), then NaChBac TM domain printed as 9-239 (KQN...ELT; forward primer encodes QKQN, K8 is in QKQ, so start is probably Q7), CTD removed; E. coli C41(DE3); with Potassium voltage-gated channel subfamily A member 2

[2] = molecular target: T2, full-length NaChBac (Halalkalibacterium halodurans, UniProt Q9KCR8); assay: […]+ flux assay in proteoliposomes; type: biochemical
T2 construct: gene BH1501; full-length, hexa-histidine-tagged (pET-15b), expressed in E. coli C41(DE3), purified in Cymal-5, reconstituted in POPE:POPG liposomes
T2 sequence (Q9KCR8 1-274): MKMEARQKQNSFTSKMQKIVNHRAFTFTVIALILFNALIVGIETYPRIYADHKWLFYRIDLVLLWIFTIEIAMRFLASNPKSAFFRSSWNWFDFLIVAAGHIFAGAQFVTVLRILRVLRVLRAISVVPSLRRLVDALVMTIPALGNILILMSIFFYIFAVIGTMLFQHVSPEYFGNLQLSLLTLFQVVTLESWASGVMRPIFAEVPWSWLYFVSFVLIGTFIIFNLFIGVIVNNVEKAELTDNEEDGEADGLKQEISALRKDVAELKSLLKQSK

`COCC(=O)O[C@]1(CCN(C)CCCc2nc3ccccc3[nH]2)CCc2cc(F)ccc2[C@@H]1C(C)C` [mibefradil] was tested, and the pIC50 [1] was 5.70 and the pIC50 [2] was 5.70.
